Source: PMC4893628, “Chalcone-based Selective Inhibitors of a C4 Plant Key Enzyme as Novel Potential Herbicides” (Scientific Reports, 2016)
Where two headings read alike, the source gives them in different places.

What was measured:
[1] = test system: Bacillus subtilis 168; assay: Bacterial growth in microscale cultivation, B. subtilis; type: cell-based; settings: relative to control
Outline: (§1)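 Inhibitors in DMSO were added to the medium, at a maximum of 400 μM for trans-chalcone and 100 μM for 2'-hydroxychalcone. Cultures were seeded at OD600 0.5, or 0.25 for B. subtilis, and growth was followed as 620 nm backscatter in a BioLector at 1200 rpm. Final backscatter, growth rate and lag phase were compared with DMSO controls.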

[2] = target: T1, F. trinervia PEPC (Flaveria trinervia, UniProt P30694); assay: biochemical; type: biochemical; settings: for Selectivity C4/C3: C4 PEPC over C3 isoform; for IC50: C4 PEPC, read-out: IC50 F. trinervia PEPC
T1 construct: the full-length ppcA gene of PEPC from F. trinervia (EMBL-Bank X61304); made in house; host or cells: Escherichia coli BL21(DE3)
T1 sequence (P30694 1-966): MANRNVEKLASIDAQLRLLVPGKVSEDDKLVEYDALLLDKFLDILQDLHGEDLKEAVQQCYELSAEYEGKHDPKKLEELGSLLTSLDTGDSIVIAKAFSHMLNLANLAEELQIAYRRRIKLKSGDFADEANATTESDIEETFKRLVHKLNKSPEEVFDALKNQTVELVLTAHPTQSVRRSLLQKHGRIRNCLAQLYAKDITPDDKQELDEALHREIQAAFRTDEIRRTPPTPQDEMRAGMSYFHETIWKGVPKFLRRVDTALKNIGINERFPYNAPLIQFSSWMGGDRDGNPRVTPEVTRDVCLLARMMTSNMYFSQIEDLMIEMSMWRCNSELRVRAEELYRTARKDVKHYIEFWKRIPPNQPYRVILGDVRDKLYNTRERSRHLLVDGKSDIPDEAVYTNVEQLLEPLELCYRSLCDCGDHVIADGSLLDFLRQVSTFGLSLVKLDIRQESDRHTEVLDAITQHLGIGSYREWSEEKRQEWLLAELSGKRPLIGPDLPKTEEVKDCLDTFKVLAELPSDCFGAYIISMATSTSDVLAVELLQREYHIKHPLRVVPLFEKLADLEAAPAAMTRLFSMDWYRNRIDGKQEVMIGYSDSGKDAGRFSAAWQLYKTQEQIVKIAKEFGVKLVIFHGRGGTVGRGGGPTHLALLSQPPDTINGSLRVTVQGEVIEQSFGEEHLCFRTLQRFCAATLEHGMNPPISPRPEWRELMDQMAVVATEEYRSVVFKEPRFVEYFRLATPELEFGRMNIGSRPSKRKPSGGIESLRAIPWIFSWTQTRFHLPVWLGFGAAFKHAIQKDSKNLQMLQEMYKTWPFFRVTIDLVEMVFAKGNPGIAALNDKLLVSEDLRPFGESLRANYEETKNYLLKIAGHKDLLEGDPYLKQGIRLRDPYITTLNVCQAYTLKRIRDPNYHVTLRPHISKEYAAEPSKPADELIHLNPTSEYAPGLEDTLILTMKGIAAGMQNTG

[3] = test system: Corynebacterium glutamicum ATCC13032; assay: Bacterial growth in microscale cultivation, C. glutamicum; type: cell-based; settings: relative to control; for activity at 4 µM / activity at 40 µM / activity at 400 µM / activity at 0.4 µM: Corynebacterium glutamicum
Outline: as §1

[4] = Bacillus subtilis, 168, complex medium, 4 µM, read-out: Final Backscatter
[5] = Bacillus subtilis, 168, complex medium, 4 µM, read-out: Growth rate
[6] = Bacillus subtilis, 168, complex medium, 40 µM, read-out: Final Backscatter
[7] = Bacillus subtilis, 168, complex medium, 40 µM, read-out: Growth rate
[8] = Bacillus subtilis, 168, minimal medium, 4 µM, read-out: Final Backscatter
[9] = Bacillus subtilis, 168, minimal medium, 4 µM, read-out: Growth rate
[10] = Bacillus subtilis, 168, minimal medium, 40 µM, read-out: Final Backscatter
[11] = Bacillus subtilis, 168, minimal medium, 40 µM, read-out: Growth rate
[12] = ATCC13032, complex medium, 4 µM, read-out: Final Backscatter
[13] = ATCC13032, complex medium, 4 µM, read-out: Growth rate
[14] = ATCC13032, complex medium, 40 µM, read-out: Final Backscatter
[15] = ATCC13032, complex medium, 40 µM, read-out: Growth rate
[16] = ATCC13032, minimal medium, 4 µM, read-out: Final Backscatter
[17] = ATCC13032, minimal medium, 4 µM, read-out: Growth rate
[18] = ATCC13032, minimal medium, 40 µM, read-out: Final Backscatter
[19] = ATCC13032, minimal medium, 40 µM, read-out: Growth rate

SMILES | activity at 4 µM [1, 4] [%] | activity at 4 µM [1, 5] [%] | activity at 40 µM [1, 6] [%] | activity at 40 µM [1, 7] [%] | activity at 4 µM [1, 8] [%] | activity at 4 µM [1, 9] [%] | activity at 40 µM [1, 10] [%] | activity at 40 µM [1, 11] [%] | Lag Phase ([1]; complex medium, 4 µM) | Lag Phase ([1]; complex medium, 40 µM) | Lag Phase ([1]; minimal medium, 4 µM) | Lag Phase ([1]; minimal medium, 40 µM) | Selectivity C4/C3 [2] [fold] | IC50 [2] [µM] | activity at 4 µM [3, 12] [%] | activity at 4 µM [3, 13] [%] | activity at 40 µM [3, 14] [%] | activity at 40 µM [3, 15] [%] | activity at 4 µM [3, 16] [%] | activity at 4 µM [3, 17] [%] | other results
O=C(/C=C/c1ccccc1O)c1ccc(O)cc1O [Compound 7, 2′,4′,2-Trihydroxychalcone] | 99.9 | 95.9 | 102 | 104 | 98.8 | 107 | 98.5 | 107 | 100,0% | 107,1% | 104,9% | 106,1% | 2.3 | 28.2 ± 2.2 | 100 | 99.1 | 98.3 | 98.8 | 98.1 | 102 | activity at 400 µM ([1]; Bacillus subtilis, 168, complex medium, 400 µM, read-out: Final Backscatter): 98.3%; activity at 400 µM ([1]; Bacillus subtilis, 168, complex medium, 400 µM, read-out: Growth rate): 92.5%; activity at 400 µM ([1]; Bacillus subtilis, 168, minimal medium, 400 µM, read-out: Final Backscatter): 95.3%; activity at 400 µM ([1]; Bacillus subtilis, 168, minimal medium, 400 µM, read-out: Growth rate): 70.4%; Lag Phase ([1]; complex medium, 400 µM): 185,2%; Lag Phase ([1]; minimal medium, 400 µM): 143,2%; activity at 400 µM ([3]; ATCC13032, complex medium, 400 µM, read-out: Final Backscatter): 110%; activity at 400 µM ([3]; ATCC13032, complex medium, 400 µM, read-out: Growth rate): 91.2%; activity at 40 µM [3, 18]: 101%; activity at 40 µM [3, 19]: 98.7%; activity at 400 µM ([3]; ATCC13032, minimal medium, 400 µM, read-out: Final Backscatter): 94.3%; activity at 400 µM ([3]; ATCC13032, minimal medium, 400 µM, read-out: Growth rate): 52.9%; Lag Phase ([3]; complex medium, 4 µM): 101,6%; Lag Phase ([3]; complex medium, 40 µM): 106,3%; Lag Phase ([3]; complex medium, 400 µM): 141,2%; Lag Phase ([3]; minimal medium, 4 µM): 100,0%; Lag Phase ([3]; minimal medium, 40 µM): 103,0%; Lag Phase ([3]; minimal medium, 400 µM): 181,9%
O=C(/C=C/c1ccc(O)c(O)c1)c1ccc(O)cc1O [Compound 8, 2′,4′,3,4-Tetrahydroxy-chalcone] | 100 | 111 | 98.9 | 109 | 92.1 | 105 | 94.2 | 95.7 | 86,5% | 105,1% | 110,3% | 90,4% | 29 | 2.2 ± 0.2 | 107 | 134 | 108 | 129 | 101 | 96.6 | activity at 0.4 µM ([1]; Bacillus subtilis, 168, complex medium, 0.4 µM, read-out: Final Backscatter): 98.1%; activity at 0.4 µM ([1]; Bacillus subtilis, 168, complex medium, 0.4 µM, read-out: Growth rate): 98.2%; activity at 0.4 µM ([1]; Bacillus subtilis, 168, minimal medium, 0.4 µM, read-out: Final Backscatter): 85.1%; activity at 0.4 µM ([1]; Bacillus subtilis, 168, minimal medium, 0.4 µM, read-out: Growth rate): 106%; Lag Phase ([1]; complex medium, 0.4 µM): 98,3%; Lag Phase ([1]; minimal medium, 0.4 µM): 107,5%; activity at 0.4 µM ([3]; ATCC13032, complex medium, 0.4 µM, read-out: Final Backscatter): 96.6%; activity at 0.4 µM ([3]; ATCC13032, complex medium, 0.4 µM, read-out: Growth rate): 114%; activity at 0.4 µM ([3]; ATCC13032, minimal medium, 0.4 µM, read-out: Final Backscatter): 99%; activity at 0.4 µM ([3]; ATCC13032, minimal medium, 0.4 µM, read-out: Growth rate): 103%; activity at 40 µM [3, 18]: 103%; activity at 40 µM [3, 19]: 102%; Lag Phase ([3]; complex medium, 0.4 µM): 109,9%; Lag Phase ([3]; complex medium, 4 µM): 95,4%; Lag Phase ([3]; complex medium, 40 µM): 84,9%; Lag Phase ([3]; minimal medium, 0.4 µM): 99,3%; Lag Phase ([3]; minimal medium, 4 µM): 98,6%; Lag Phase ([3]; minimal medium, 40 µM): 100,7%
